Source: ChEMBL document CHEMBL4184154, “Docking based design of diastereoisomeric MTCA as GPIIb/IIIa receptor inhibitor” (Bioorg Med Chem Lett, 2017)
Activity calls are given as the source filed them. The rule behind the calls is not given here. Where a SMILES comes first, the peptide text is derived from it. Bridges are numbered along the chain shown (N, C = ends). [ ]: non-standard residue; d: D form. hArg = N=C(N)NCCCC[C@H](N)C(=O)O; Mpa = O=C(O)CCS

Assays:
[1] = target: T1, Integrin subunit alpha 2b/beta-3 (Rattus norvegicus) (UniProt D3ZAC0+Q8R2H2); assay: Inhibition of GP2b/3a in rat platelet-rich plasma assessed as reduction in arachidonic acid-induced platelet aggregation at 10^-8 to 10^-5 M after 5 mins by aggregometric analysis
Platelet = assay: Antiplatelet activity in rat platelet-rich plasma assessed as inhibition of arachidonic acid-induced platelet aggregation by atomic force microscopic method; format: functional
Rattus norvegicus [2] = assay: Antiplatelet activity in Sprague Dawley rat arterial thrombosis model assessed as downregulation of GP2b/3a protein expression in plasma administered at 1 umol/kg, po by ELISA; format: functional, organism-based
Rattus norvegicus [3] = assay: Anti-thrombotic activity in Sprague-Dawley rat arterial thrombosis model assessed as reduction in thrombus weight at 1 umol/kg, po pretreated for 30 mins followed by thrombosis induction measured after 15 mins; format: functional, organism-based
[4] = target: T2, Integrin subunit alpha 2b/beta-3 (Rattus norvegicus, UniProt D3ZAC0+Q8R2H2); assay: Binding affinity to GP2b/3a in rat blood assessed as conformational change by measuring soluble GP2b/3a levels after 12 hrs by UV-spectrophotometric analysis
T2 sequence (D3ZAC0 whole entry): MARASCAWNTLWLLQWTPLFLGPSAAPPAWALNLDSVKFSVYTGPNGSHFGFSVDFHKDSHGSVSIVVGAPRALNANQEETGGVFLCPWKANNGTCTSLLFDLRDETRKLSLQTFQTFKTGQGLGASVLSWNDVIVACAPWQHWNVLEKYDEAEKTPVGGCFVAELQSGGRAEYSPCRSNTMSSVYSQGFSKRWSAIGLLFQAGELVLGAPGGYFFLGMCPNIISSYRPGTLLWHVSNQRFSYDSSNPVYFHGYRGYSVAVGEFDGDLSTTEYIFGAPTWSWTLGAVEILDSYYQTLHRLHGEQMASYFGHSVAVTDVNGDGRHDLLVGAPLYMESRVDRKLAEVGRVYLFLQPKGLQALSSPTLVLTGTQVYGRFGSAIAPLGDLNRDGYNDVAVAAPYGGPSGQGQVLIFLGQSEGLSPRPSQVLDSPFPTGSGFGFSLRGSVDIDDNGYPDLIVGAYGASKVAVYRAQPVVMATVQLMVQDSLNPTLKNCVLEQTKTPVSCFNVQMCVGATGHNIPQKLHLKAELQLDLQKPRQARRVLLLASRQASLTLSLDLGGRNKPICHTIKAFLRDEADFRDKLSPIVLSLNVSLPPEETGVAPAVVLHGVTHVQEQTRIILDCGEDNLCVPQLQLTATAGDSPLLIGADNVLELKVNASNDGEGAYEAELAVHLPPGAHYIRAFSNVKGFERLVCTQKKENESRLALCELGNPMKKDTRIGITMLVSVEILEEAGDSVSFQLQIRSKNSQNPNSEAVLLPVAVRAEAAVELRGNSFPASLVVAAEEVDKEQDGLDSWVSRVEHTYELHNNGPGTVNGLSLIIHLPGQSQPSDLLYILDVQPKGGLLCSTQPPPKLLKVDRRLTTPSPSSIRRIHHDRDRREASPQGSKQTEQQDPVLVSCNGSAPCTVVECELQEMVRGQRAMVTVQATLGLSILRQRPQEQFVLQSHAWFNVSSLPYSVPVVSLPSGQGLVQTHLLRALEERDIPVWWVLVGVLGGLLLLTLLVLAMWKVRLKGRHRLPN
T2 sequence (Q8R2H2 whole entry): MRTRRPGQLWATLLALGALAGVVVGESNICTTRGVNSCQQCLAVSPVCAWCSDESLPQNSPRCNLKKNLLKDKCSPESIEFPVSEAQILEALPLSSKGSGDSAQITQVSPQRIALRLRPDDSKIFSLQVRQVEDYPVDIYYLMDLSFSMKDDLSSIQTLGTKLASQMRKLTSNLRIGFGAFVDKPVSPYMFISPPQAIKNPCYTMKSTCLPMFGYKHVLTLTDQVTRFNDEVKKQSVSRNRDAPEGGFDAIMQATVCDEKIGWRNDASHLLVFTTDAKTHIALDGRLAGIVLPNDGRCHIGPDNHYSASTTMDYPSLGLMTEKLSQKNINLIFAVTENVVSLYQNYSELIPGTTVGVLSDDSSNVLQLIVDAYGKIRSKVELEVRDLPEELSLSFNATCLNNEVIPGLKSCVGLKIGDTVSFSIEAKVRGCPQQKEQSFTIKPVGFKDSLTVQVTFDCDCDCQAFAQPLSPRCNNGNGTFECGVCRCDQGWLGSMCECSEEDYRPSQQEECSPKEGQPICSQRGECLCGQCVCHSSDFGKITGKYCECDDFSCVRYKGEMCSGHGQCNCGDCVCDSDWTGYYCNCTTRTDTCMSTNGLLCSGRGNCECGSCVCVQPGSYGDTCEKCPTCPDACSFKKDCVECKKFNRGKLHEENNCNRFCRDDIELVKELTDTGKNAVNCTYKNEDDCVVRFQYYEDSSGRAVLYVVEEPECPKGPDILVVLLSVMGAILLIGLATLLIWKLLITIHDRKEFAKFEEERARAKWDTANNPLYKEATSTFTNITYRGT

Rattus norvegicus [5] = assay: Anti-thrombotic activity in Sprague-Dawley rat arterial thrombosis model assessed as reduction in thrombus weight at 16.7 umol/kg, po pretreated for 30 mins followed by thrombosis induction measured after 15 mins; format: functional, organism-based
[6] = target: T1, Integrin subunit alpha 2b/beta-3 (Rattus norvegicus); assay: Inhibition of GP2b/3a in rat platelet-rich plasma assessed as reduction in arachidonic acid-induced platelet aggregation at 10^-8 to 10^-2 M after 5 mins by aggregometric analysis

| Compound | inhibition [1] | Activity (Platelet) | MEC (Platelet) | Activity (Rattus norvegicus [2]) | Activity (Rattus norvegicus [3]) | EC50 [4] [nM] | Activity (Rattus norvegicus [5]) | inhibition [6] |
| --- | --- | --- | --- | --- | --- | --- | --- | --- |
| N=C(N)NCCCC[C@@H]1NC(=O)CCSSC[C@@H](C(N)=O)NC(=O)[C@@H]2CCCN2C(=O)[C@H](Cc2c[nH]c3ccccc23)NC(=O)[C@H](CC(=O)O)NC(=O)CNC1=O ([Mpa][hArg]GDWPC-NH2; disulfide 1-7) | Active | – | – | – | – | – | – | – |
| C[C@@H]1N[C@H](C(=O)O)Cc2c1[nH]c1ccccc21 | Active | Dose-dependent effect | 1 ×10⁻⁵ M | Active | Active | 1660 | – | – |
| CC(=O)Oc1ccccc1C(=O)O | – | – | – | – | – | – | Active | – |
| N=C(N)NCCC[C@H](N)C(=O)NCC(=O)N[C@@H](CC(=O)O)C(=O)N[C@@H](CO)C(=O)O | – | – | – | – | – | – | – | Active |
| C[C@H]1N[C@H](C(=O)O)Cc2c1[nH]c1ccccc21 | Active | Dose-dependent effect | 1 ×10⁻⁶ M | Active | Active | 1160 | – | – |
